Laboratory results as given in paper PMC2364952, “The Anti-Inflammatory Activity of Boron Derivatives in Rodents” (Metal-Based Drugs, 1995).
pIC50: −log10 of the molar value.

How the values were obtained:
[1] = biological target: aryl sulphatase; test: Aryl sulfatase activity, mouse macrophages; assay type: cell-based, mouse (J774 macrophages); conditions: Table 3; read-out: IC50 Aryl Sulfatase, Mouse Macrophage
[2] = system: trypsin; test: Trypsin activity, UMR-106 osteosarcoma cells; assay type: cell-based; conditions: Table 6; read-out: IC50 Trypsin, Rat UMR-106 Bone Osteosarcoma
[3] = biological target: T1, 5'-lipoxygenase (Homo sapiens, UniProt P09917); test: 5'-Lipoxygenase activity, human leukocytes; assay type: cell-based; conditions: Table 7
T1 construct: endogenous in cells; host or cells: RMPI 1788 human leukocytes
T1 sequence (P09917 1-674): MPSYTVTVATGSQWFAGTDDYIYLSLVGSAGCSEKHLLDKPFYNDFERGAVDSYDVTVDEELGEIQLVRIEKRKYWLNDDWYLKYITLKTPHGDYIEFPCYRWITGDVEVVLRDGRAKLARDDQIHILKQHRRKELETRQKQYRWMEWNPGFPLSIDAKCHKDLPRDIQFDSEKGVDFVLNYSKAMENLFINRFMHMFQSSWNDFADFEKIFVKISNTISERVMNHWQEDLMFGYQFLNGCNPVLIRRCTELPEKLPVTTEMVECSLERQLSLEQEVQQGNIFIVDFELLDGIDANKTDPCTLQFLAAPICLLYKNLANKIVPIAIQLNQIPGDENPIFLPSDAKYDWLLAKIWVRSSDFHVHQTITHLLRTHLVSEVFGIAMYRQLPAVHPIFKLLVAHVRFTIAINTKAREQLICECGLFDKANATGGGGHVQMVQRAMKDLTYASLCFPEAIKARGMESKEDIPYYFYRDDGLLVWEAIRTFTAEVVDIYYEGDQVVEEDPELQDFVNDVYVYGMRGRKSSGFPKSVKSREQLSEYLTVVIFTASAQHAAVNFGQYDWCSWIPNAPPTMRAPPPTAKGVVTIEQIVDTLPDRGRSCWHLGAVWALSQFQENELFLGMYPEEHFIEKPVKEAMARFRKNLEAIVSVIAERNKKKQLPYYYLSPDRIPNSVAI

[4] = system: tail flick response to heat; test: Hot plate tail flick screen; assay type: in vivo, CF1 male mice; conditions: for Mice Tail Flick: 8 mg/kg I.P., hot plate, Table 2; for tail flick assay time: mice, 8 mg/kg
[5] = system: neutral cathepsin; test: Cathepsin activity, UMR-106 osteosarcoma cells; assay type: cell-based; conditions: Table 6; read-out: IC50 Neutral Cathepsin, Rat UMR-106 Bone Osteosarcoma
[6] = system: cathepsin; test: Cathepsin activity, mouse macrophages; assay type: cell-based, mouse (J774 macrophages); conditions: Table 3; read-out: IC50 Cathepsin, Mouse Macrophage
[7] = biological target: prostaglandin cyclooxygenase; test: Prostaglandin cyclooxygenase activity, macrophages; assay type: cell-based, mouse (J774 macrophages); conditions: Table 7
[8] = system: trypsin; test: Trypsin proteolytic activity, mouse macrophages; assay type: cell-based, mouse (J774 macrophages); conditions: Table 5; read-out: IC50 Trypsin, Mouse Macrophage
[9] = biological target: acid phosphatase; test: Acid phosphatase activity, mouse macrophages; assay type: cell-based, mouse (J774 macrophages); conditions: Table 3; read-out: IC50 Acid Phosphatase, Mouse Macrophage
[10] = biological target: elastase; test: Elastase activity, mouse macrophages; assay type: cell-based, mouse (J774 macrophages); conditions: Table 5; read-out: IC50 Elastase, Mouse Macrophage
[11] = system: prostaglandin cyclooxygenase; test: Prostaglandin cyclooxygenase activity, Be Sal cells; assay type: cell-based, human (Be Sal osteofibrolytic cells); conditions: Table 7; read-out: IC50 Prostaglandin Cyclooxygenase, Be Sal Osteofibro
[12] = biological target: T2, prostaglandin cyclooxygenase (Bos taurus, UniProt O62664); test: Prostaglandin synthetase from bovine seminal vesicles; assay type: biochemical; conditions: Table 7; read-out: IC50 Prostaglandin Cyclooxygenase, Beef Seminal Vesicle
T2 construct: purified commercial prostaglandin synthetase from bovine seminal vesicles (Miles Research Products); purchased Miles Research Products; host or cells: bovine seminal vesicles (tissue preparation)
T2 sequence (O62664 25-600): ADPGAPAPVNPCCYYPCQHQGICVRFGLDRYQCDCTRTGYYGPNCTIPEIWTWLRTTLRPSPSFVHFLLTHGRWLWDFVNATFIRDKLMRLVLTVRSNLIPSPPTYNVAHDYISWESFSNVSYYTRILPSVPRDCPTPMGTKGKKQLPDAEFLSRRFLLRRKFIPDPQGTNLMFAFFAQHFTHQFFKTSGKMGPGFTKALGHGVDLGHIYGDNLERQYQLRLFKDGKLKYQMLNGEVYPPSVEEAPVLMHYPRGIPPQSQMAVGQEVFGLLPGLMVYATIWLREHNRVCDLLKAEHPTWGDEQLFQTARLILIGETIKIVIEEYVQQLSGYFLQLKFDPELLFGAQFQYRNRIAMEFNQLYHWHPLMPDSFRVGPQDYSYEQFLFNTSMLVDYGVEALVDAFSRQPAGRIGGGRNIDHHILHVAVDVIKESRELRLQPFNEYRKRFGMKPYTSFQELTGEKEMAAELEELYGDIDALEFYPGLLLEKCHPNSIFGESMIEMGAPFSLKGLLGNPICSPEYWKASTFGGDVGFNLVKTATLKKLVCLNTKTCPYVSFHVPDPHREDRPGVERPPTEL

[13] = system: carrageenan-induced pleural fluid; test: Anti-pleurisy screen; assay type: in vivo, Sprague Dawley male rats; conditions: for pleurisy edema in rats: 8 mg/kg; for Rat Pleurisy: rats, 8 mg/kg I.P., 1 h before and 3 h after carrageenan, Table 2;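 for Rat Pleurisy: Pleural fluid volume as percent of control rats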
[14] = system: acetic acid induced stretch reflex; test: Local analgesic screen (acetic acid writhing); assay type: in vivo, CF1 mice; conditions: for Mice Writhing Reflex: 8 mg/kg I.P., Table 2; for reduction of the reflex action: mice, acetic acid induced local pain, 8 mg/kg
[15] = system: carrageenan-induced inflammation of paw; test: Carrageenan-induced paw edema, rats; assay type: in vivo, Sprague Dawley male rats; conditions: for reduction in induced edema in rats: 8 mg/kg x 2; for Rat Inflammatory: 8 mg/kg x 2, I.P., Table 2;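 for Rat Inflammatory: paw weight increase as percent of control rats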
[16] = system: adjuvant (M. butyricum) arthritis; test: Chronic adjuvant arthritic screen; assay type: in vivo; conditions: rats; for Rat Chronic Arthritis: 8 mg/kg/day I.P., Day 3 to Day 21, Table 2
[17] = biological target: T3, 5'-lipoxygenase (Mus musculus, UniProt P48999); test: 5'-Lipoxygenase activity, mouse macrophages; assay type: cell-based; conditions: Table 7; read-out: IC50 5'-Lipoxygenase, Mouse Macrophage
T3 construct: endogenous in cells; host or cells: mouse macrophages (J774A as maintained above)
T3 sequence (P48999 1-674): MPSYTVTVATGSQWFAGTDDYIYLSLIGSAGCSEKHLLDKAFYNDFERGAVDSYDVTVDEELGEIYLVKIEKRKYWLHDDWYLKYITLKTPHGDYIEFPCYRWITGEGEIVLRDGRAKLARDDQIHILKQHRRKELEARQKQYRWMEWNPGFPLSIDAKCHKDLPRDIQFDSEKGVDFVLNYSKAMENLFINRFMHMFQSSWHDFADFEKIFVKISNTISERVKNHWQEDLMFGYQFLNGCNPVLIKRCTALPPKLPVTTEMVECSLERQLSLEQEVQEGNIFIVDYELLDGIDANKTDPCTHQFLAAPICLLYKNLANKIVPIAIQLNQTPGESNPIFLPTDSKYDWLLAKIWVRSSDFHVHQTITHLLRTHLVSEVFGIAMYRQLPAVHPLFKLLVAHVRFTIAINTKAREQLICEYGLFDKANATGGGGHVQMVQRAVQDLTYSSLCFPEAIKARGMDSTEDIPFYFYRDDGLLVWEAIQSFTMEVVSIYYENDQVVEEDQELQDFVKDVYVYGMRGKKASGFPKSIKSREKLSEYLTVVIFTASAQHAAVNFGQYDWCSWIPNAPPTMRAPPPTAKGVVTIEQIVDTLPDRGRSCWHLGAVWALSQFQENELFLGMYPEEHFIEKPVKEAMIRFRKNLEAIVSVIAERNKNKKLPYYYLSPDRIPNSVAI

[18] = system: elastase; test: Elastase activity, UMR-106 osteosarcoma cells; assay type: cell-based; conditions: Table 6; read-out: IC50 Elastase, Rat UMR-106 Bone Osteosarcoma
[19] = system: carrageenan-induced inflammation of hind foot; test: Carrageenan-induced foot edema, mice; assay type: in vivo, CF1 male mice; conditions: mice, 8 mg/kg x 2

SMILES	pIC50 [1]	pIC50 [2]	pIC50 [3]	Mice Tail Flick [4]	tail flick assay time [4]	pIC50 [5]	pIC50 [6]	pIC50 [7]	pIC50 [8]	pIC50 [9]	pIC50 [10]	pIC50 [11]	pIC50 [12]	pleurisy edema in rats [13]	Rat Pleurisy [13]	Mice Writhing Reflex [14]	reduction of the reflex action [14]	Rat Inflammatory [15]	pIC50 [17]	pIC50 [18]	further results
CCCCCCCCCCCCCCCC[N+](C)(C)[BH2-]C(=O)O [Compound 8]	5.01	5.18	5.82	167 % of control	increased	5.18	5.14	5.59	5.90	6.03	5.74	5.17	5.61	reduced significantly	19 % of control	16 % of control	80%	59 % of control	5.06	5.02	reduction in induced edema in rats [15]: at least 40%; activity in chronic arthritis screen ([16]; 8 mg/kg/day): significantly active; Rat Chronic Arthritis [16]: 40 % of control
O=C(O)[BH2-][P+](c1ccccc1)(c1ccccc1)c1ccccc1 [Compound 12]	5.07	5.25	5.32	197 % of control	increased	5.24	5.26	5.45	5.75	5.97	5.52	5.26	5.12	reduced significantly	28 % of control	19 % of control	80%	61 % of control	5.01	5.05	activity in chronic arthritis screen ([16]; 8 mg/kg/day): significantly active; Rat Chronic Arthritis [16]: 49 % of control
COC(=O)[BH2-][NH+](C)C [Compound 15]	5.13	5.18	5.27	147 % of control	increased	5.21	5.17	5.55	5.56	5.98	5.67	5.37	5.54		86 % of control	12 % of control	80%	59 % of control	5.18	5.01	anti-inflammatory activity in mouse edema screen [19]: less active; reduction in induced edema in rats [15]: at least 40%
C[NH+](C)[BH2-]C#N [Compound 33]	5.04	5.12	5.46			5.20	5.26	5.23	5.61	5.95	5.60					15 % of control	80%	61 % of control	5.00	5.04	
C[N+](C)(C)[BH2-]C#N [Compound 34]	5.03	5.58	5.19			5.26	5.20	5.23	5.85	5.98	5.87	5.37	5.23	reduced significantly	65 % of control	18 % of control	80%	65 % of control	5.09	5.05	reduction of pannus ([16]; 8 mg/kg/day): greater than 75%; Rat Chronic Arthritis [16]: 4 % of control
